According to patent publication US20220274947A1, “NOVEL HETEROARYL-TRIAZOLE COMPOUNDS AS PESTICIDES” (Bayer Aktiengesellschaft, priority 2019, published 2022):

Tests used:
Assay type in all cases: in vivo
[1] = test system: Diabrotica balteata; test: Diabrotica balteata spray test; details: 168 h, wheat seeds, larvae, after 7 days, read-out: activity (efficacy: 100% means all seedlings have grown up like in the untreated, uninfected control); for pest or weed control at 32 µg/disc, 100 g/ha: application rate 100 g/ha (=32 μg/well); for pest or weed control at 160 µg/disc, 500 g/ha: application rate 500 g/ha (=160 μg/well)
Summary of the method: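 Wheat seedlings, germinated 1 day on agar, were sprayed with compound in acetone/DMF diluted in water containing emulsifier, then infested with 10-20 Diabrotica balteata larvae. After 7 days efficacy in % was scored: 100% means seedlings grew like the untreated, uninfected control; 0% means none grew.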

[2] = test system: Rhipicephalus sanguineus; test: Rhipicephalus sanguineus in-vitro contact test, adult brown dog ticks (RHIPSA Cont); details: 48 h, after 48 hours, read-out: activity (efficacy: 100% means all ticks are dead or moribund); for pest or weed control at 1 µg/cm2, 100 g/ha: application rate 1 μg/cm^2 (=100 g/ha); for pest or weed control at 5 µg/cm2, 500 g/ha: application rate 5 μg/cm^2 (=500 g/ha)
Summary of the method: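 Mortality of adult R. sanguineus was judged 48 h after contact with acetone-applied residues on glass tube walls. Ticks that stayed immotile or moved without coordination when heated to 45–50 °C (max 5 min) counted as dead or moribund.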

[3] = test system: Rhipicephalus microplus; test: Rhipicephalus (Boophilus) microplus injection test (BOOPMI Inj); details: 168 h, injection into adult engorged female ticks, egg deposition after 7 days, read-out: activity (efficacy: 100% means all eggs are infertile); for pest or weed control at 0.004 mg: application rate 4 μg/tick; for pest or weed control at 0.02 mg: application rate 20 μg/tick
Summary of the method: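 Five engorged adult female R. microplus ticks injected into the abdomen with 1 μL of compound diluted in DMSO, then kept in a climate chamber. Fertile egg deposition checked after 7 days; eggs without visible fertility held until hatching at about 42 days. Efficacy: 100% = all eggs infertile, 0% = all fertile.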

[4] = test system: Ctenocephalides felis; test: Ctenocephalides felis in-vitro contact test, adult cat flea (CTECFE Cont); details: application rate 5 μg/cm^2 (=500 g/ha), adult cat fleas, after 48 hours, read-out: activity (efficacy: 100% means all fleas are dead or moribund)
Summary of the method: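 Acetone solutions coated on glass tube inner walls (900 ppm giving 5 μg/cm^2), then 5-10 adult fleas added and held 48 h at room temperature. Fleas unable to escape a 45-50° C. heating plate within 5 min scored dead or moribund; efficacy = % dead/moribund.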

[5] = test system: Rhipicephalus microplus; test: Rhipicephalus (Boophilus) microplus in-vitro contact test, larval cattle tick, strain Parkhurst (BOOPMI Cont); details: application rate 5 μg/cm^2 (=500 g/ha), tick larvae, after 48 hours, read-out: activity (efficacy: 100% means all larvae are dead or moribund)
Summary of the method: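 Acetone solutions dried onto glass tube walls (900 ppm giving 5 μg/cm^2); 20-50 pyrethroid-resistant Parkhurst larvae added per tube and held 48 h at 27° C., 85% relative humidity. Efficacy scored by negative geotaxis as % dead or moribund larvae.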

[6] = test system: Spodoptera frugiperda; test: Spodoptera frugiperda spray test; details: in Zea mays, 168 h, read-out: activity (mortality)
Summary of the method: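 Maize leaf sections were sprayed with compound formulated in acetone/DMF and diluted in water containing 1000 ppm emulsifier. Dried leaves were infested with fall armyworm larvae, and percent mortality was scored after 7 days.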

[7] = test system: Nezara viridula; test: Nezara viridula spray test; details: in Hordeum vulgare, 96 h, barley plants, larvae, after 4 days; for mortality at 500 g/ha: application rate 500 g/ha
Procedure: Nezara viridula—Spray Test Solvent: 78.0 parts by weight of acetone • • 1.5 parts by weight of dimethylformamide Emulsifier: alkylarylpolyglycol ether
To produce a suitable preparation of active compound, 1 part by weight of active compound is mixed with the stated amount of solvent, and the concentrate is diluted with water, containing an emulsifier concentration of 1000 ppm, to the desired concentration. Further test concentrations are prepared by dilution with emulsifier containing water.
Barley plants (Hordeum vulgare) infested with larvae of the southern green stink bug (Nezara viridula) are sprayed with a test solution containing the desired concentration of the active ingredient.
After 4 days mortality in % is determined. 100% means all the stink bugs have been killed; 0% means none of the stink bugs have been killed.

[8] = test system: Myzus persicae; test: Myzus persicae oral test; details: 120 h, read-out: activity (mortality)
Summary of the method: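 Percent mortality was recorded at day 5, where 0% means no aphids killed. Compound prepared from an acetone concentrate diluted in water and combined with IPL41 medium containing sugar was offered to mixed-stage green peach aphids, which sucked it through a parafilm seal.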

[9] = test system: Ctenocephalides felis; test: Ctenocephalides felis oral test (CTECFE Oral); details: 48 h, read-out: activity (mortality)
Summary of the method: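 About 20 unfed adult cat fleas fed through parafilm on cattle blood containing compound (DMSO concentrate diluted in blood to the desired concentration). Blood held at 37 °C, fleas at room temperature. Mortality (%) scored after 2 days.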

[10] = test system: Myzus persicae; test: Myzus persicae spray test; details: in Brassica rapa, foliar, 120 h, read-out: activity (mortality), application rate 100 g/ha, spray, Chinese cabbage leaf disks, after 5 days
Procedure: Myzus persicae—Spray Test Solvent: 78.0 parts by weight acetone • 1.5 parts by weight dimethylformamide Emulsifier: alkylarylpolyglycol ether To produce a suitable preparation of active compound, 1 part by weight of active compound is mixed with the stated amount of solvents and is diluted with water, containing an emulsifier concentration of 1000 ppm, to the desired concentration. Further test concentrations are prepared by dilution with emulsifier containing water.
Chinese cabbage (Brassica pekinensis) leaf disks infected with all instars of the green peach aphid (Myzus persicae), are sprayed with a preparation of the active ingredient of the desired concentration.
After 5 days mortality in % is determined. 100% means all aphids have been killed and 0% means none of the aphids have been killed.

[11] = test system: Musca domestica strain WHO—N; test: Musca domestica test (MUSCDO surface treatment & contact assay); details: exposure 30 minutes, 24 hours after contact, read-out: efficacy (mortality); for mortality at 20 mg/m2: surface concentration 20 mg/m^2, glazed tile; for mortality at 4 mg/m2: surface concentration 4 mg/m^2, glazed tile
Summary of the method: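 Compound dissolved in acetone (2 mg/ml) with 2000 ppm rapeseed oil methyl ester and pipetted onto glazed tile; after acetone evaporation, adult flies exposed to dried surface for 30 minutes. Mortality (%) scored 24 hours after contact.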

[12] = test system: Aedes aegypti strain MONHEIM; test: Aedes aegypti test (AEDSAE surface treatment & contact assay); details: exposure 30 minutes, 24 hours after contact, read-out: efficacy (mortality)
Summary of the method: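 Compound dissolved in acetone (2 mg/ml) with 2000 ppm rapeseed oil methyl ester, pipetted onto glazed tile and dried. Adult mosquitoes exposed on the surface for 30 min; percent mortality scored 24 h after contact.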

SMILES	pest or weed control at 32 µg/disc, 100 g/ha [1] [%]	pest or weed control at 160 µg/disc, 500 g/ha [1] [%]	pest or weed control at 1 µg/cm2, 100 g/ha [2] [%]	pest or weed control at 5 µg/cm2, 500 g/ha [2] [%]	pest or weed control at 0.004 mg [3] [%]	pest or weed control at 0.02 mg [3] [%]	pest or weed control at 5 µg/cm2 [4] [%]	pest or weed control at 5 µg/cm2 [5] [%]	mortality at 100 g/ha [6] [%]	mortality at 500 g/ha [6] [%]	mortality at 500 g/ha [7] [%]	mortality at 4 ppm [8] [%]	mortality at 100 ppm [9] [%]	mortality at 100 g/ha [10] [%]	mortality at 20 mg/m2 [11] [%]	mortality at 100 g/ha ([7]; application rate 100 g/ha) [%]	mortality at 4 mg/m2 [11] [%]	mortality at 4 mg/m2 ([12]; surface concentration 4 mg/m^2, glazed tile) [%]	mortality at 20 mg/m2 ([12]; surface concentration 20 mg/m^2, glazed tile) [%]
C[C@H](NC(=O)c1cc(Cl)cc(C(F)(F)F)c1)c1ncnn1-c1ccc(C(=O)N(C)CC#N)cn1 [II-72]	100	100	100	100	100	100	100	100	100	100	100	100	–	–	–	–	–	–	–
COCCN(C)C(=O)c1ccc(-n2nc(C)nc2[C@H](C)NC(=O)c2cc(C(F)(F)F)cc(C(F)(F)F)c2)nc1 [II-98]	–	–	100	100	100	–	–	100	83	–	–	100	100	90	–	–	–	–	–
C[C@H](NC(=O)c1cc(Cl)cc(OC(F)(F)F)c1)c1ncnn1-c1ncc(Br)s1 [II-15, N-{(1S)-1-[1-(5-bromo-1,3-thiazol-2-yl)-1H-1,2,4-triazol-5-yl]ethyl}-3-chloro-5-(trifluoromethoxy)benzamide]	100	100	–	–	100	100	80	100	–	100	90	–	100	–	80 to 100	–	–	–	–
COc1nc([C@H](C)NC(=O)c2cc(C(F)(F)F)cc(C(F)(F)F)c2)n(-c2ccc(C#N)cn2)n1 [I-11]	100	100	–	–	100	100	–	100	100	100	100	100	100	–	80 to 100	–	–	–	–
C[C@H](NC(=O)c1cc(Cl)cc(C(F)(F)F)c1)c1ncnn1-c1ccc(C(=O)N(CC(F)(F)F)C2CC2)cn1 [II-70]	100	100	100	100	100	100	100	100	100	100	90	–	–	–	–	–	–	–	–
CC(C)c1nc([C@H](C)NC(=O)c2cc(Cl)nc(C(F)(F)F)c2)n(-c2ccc(C#N)cn2)n1 [I-28]	100	–	100	100	100	100	–	100	100	–	–	90	100	–	80 to 100	90	–	–	–
C[C@H](NC(=O)c1cc(I)cc(C(F)(F)F)c1)c1ncnn1-c1ccc(C#N)cn1 [II-46]	100	100	100	100	100	100	–	100	100	100	100	–	100	–	80 to 100	–	80 to 100	80 to 100	80 to 100
C[C@H](NC(=O)c1cc(Cl)cc(OC(F)(F)F)c1)c1ncnn1-c1ncc(I)s1 [II-21]	100	100	–	–	100	100	80	100	–	100	90	–	100	–	80 to 100	–	80 to 100	–	–
